Laboratory results taken from patent US5736578A, “Ethylamido fluorenes and improved method of making same” (Bristol-Myers Squibb Company, priority 1996, dated 1998).

Tests used:
human ML1A = biological target: T1, human ML1A (Homo sapiens, UniProt P48039); test: Melatonergic binding (2-[125I]-iodomelatonin displacement, NIH 3T3 cell membranes); conditions: human ML1A in NIH 3T3 membranes; 100 pM 2-[125I]-iodomelatonin; 37° C., 1 hour; read-out: Binding Affinity (IC50)
T1 construct: expressed in transfected cells; pcDNA3; membrane homogenates
T1 sequence (P48039 whole entry): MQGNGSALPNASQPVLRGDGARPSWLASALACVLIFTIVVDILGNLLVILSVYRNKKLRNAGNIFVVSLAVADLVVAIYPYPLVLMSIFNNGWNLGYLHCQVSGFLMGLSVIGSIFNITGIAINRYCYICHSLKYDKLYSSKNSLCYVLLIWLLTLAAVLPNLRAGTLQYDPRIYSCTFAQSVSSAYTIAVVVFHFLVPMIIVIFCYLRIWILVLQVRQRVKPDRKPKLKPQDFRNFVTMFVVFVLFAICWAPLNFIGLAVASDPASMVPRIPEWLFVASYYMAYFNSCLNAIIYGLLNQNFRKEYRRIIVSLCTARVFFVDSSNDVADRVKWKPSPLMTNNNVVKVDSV
Method: Measurement of Melatonergic Binding
(a) 50 mM Tris buffer containing 12.5 mM MgCl2 and 2 mM EDTA (pH 7.4 at 37° C.).
(b) Wash buffer: 20 mM Tris base containing 2 mM MgCl2 (pH 7.4 at room temperature).
(d) 2-[^125 I]-iodomelatonin (100 pM final concn.). Source: NEN
2.Membrane preparation. The receptor cDNA (human ML1A) was subcloned into pcDNA3 and introduced into NIH 3T3 cells using Lipofectamine. Transformed NIH 3T3 cells resistant to geneticin were isolated and single colonies expressing high levels of 2-[^125 I]-iodomelatonin binding were isolated and characterized. Cell pellets were frozen at -80° C. for further use. For preparing membrane homogenates, pellets are thawed on ice, and resuspended in TME buffer, Tris base, MgCl2, EDTA (pH 7.4 at 37° C.), supplemented with aprotinin, leupeptin, and phenylmethlysulfonylfluoride. The cells were then homogenized using a dounce homogenizer, and centrifuged. The resulting pellet was resuspended with a dounce homogenizer in TME and frozen. On the day of assay, the small aliquot was thawed on ice and resuspended in TME buffer.
3. Incubation: 37° C. for 1 hour. Reaction is terminated by filtration.
The procedure was based on that disclosed in: Reppert, S. M., Weaver, D. R., and Ebisawa, R. (1994), Neuron, 13, 1177-1185 (1994).

[1] = test system: Cyclic AMP Accumulation in Intact Cells: Melatonin; test: Functional activity: cyclic AMP accumulation in intact cells (forskolin-stimulated); assay type: cell-based; conditions: 10 min, read-out: I.A. (Intrinsic Activity) = Emax (experimental compound)/Emax (melatonin)
Method: Measurement of Functional Activity
Cyclic AMP Accumulation in Intact Cells: Melatonin
The media was removed from cell flask and washed with Hank's salt solution or PBS, as appropriate. The cells were detached from flask. Enough media was added so that the concentration of cells is 4×10^5 /ml when counted with a hemocytometer. Dialyzed or heat inactivated fetal bovine serum (FBS) was used in the media when plating the cells. 1 ml of cell suspension was put into each well, then 2 mls of media. Cells were incubated overnight.
1. Stock solution: plain media (no serum or additives)+20 mM HEPES.
2. IBMX solution: media/HEPES+1 mM IBMX.
3. Assay solution: 90% stock solution+10% IBMX solution.
Each well gets 3 mls of assay solution for preincubation and 3 mls for the assay. Each test condition is done in triplicate.
a) Basal assay solution+DMSO
b) Forskolin stimulation: 10 μM final concentration.
All tests were done in triplicate at 37° C. Plates with cells were kept in a shallow 37° C. water bath throughout the reaction. Media was taken from the wells and 3 ml of preincubation media was added. After 10 min, that solution was removed and 3 mls of drug solution was added. After 10 min, the media was removed and reaction stopped with HCl. Samples set for at least an hour at room temperature. 1 ml from each dish was taken and put into a microfuge tube and spun to remove floating cells. After dilution to 1:100 for RIA, a radioimmuno-assay was done.

circadian rhythms = conditions: rats; in words; cited from earlier work
[2] = in words; cited from earlier work
[3] = test system: jet-lag related sleep disturbances; conditions: humans; in words; cited from earlier work

| Compound | IC50 (human ML1A) | also measured |
| --- | --- | --- |
| CCCC(=O)NCCC1c2ccccc2-c2ccc(OC)cc21 (centres unmarked) [Example 6, N-[2-(2-methoxyfluoren-9-yl)ethyl]butanamide] | < 100 nM | – |
| CCCC(=O)NCCC1c2cc(OC)ccc2-c2ccc(OC)cc21 [Example 10, N-[2-(2,7-dimethoxyfluoren-9-yl)ethyl]butanamide] | – | Emax [1]: 115% |
| COc1ccc2[nH]cc(CCNC(C)=O)c2c1 [melatonin, N-acetyl-5-methoxytryptamine] | – | effect of exogenous administration on circadian rhythms (circadian rhythms): synchronize circadian rhythms in rats; oral bioavailability [2]: often low and variable; treatment of jet-lag related sleep disturbances [3]: used to treat jet-lag related sleep disturbances |
| COc1ccc2c(c1)C(CCNC(=O)C1CC1)c1cc(OC)ccc1-2 [Example 7, N-[2-(2,7-dimethoxyfluoren-9-yl)ethyl]cyclopropane carboxamide] | – | Emax [1]: 102% |
| CCC(=O)NCCC1c2cc(OC)ccc2-c2ccc(OC)cc21 [Example 5, N-[2-(2,7-dimethoxyfluoren-9-yl)ethyl]propanamide] | < 10 nM | Emax [1]: 114% |

The next lines start with results.

| IC50 (human ML1A) | Compound | also measured |
| --- | --- | --- |
| < 10 nM | COc1ccc2c(c1)C(CCNC(=O)C1CCC1)c1cc(OC)ccc1-2 [Example 13, N-[2-(2,7-dimethoxyfluoren-9-yl)ethyl]cyclobutane carboxamide] | – |
| < 500 nM | COc1ccc2c(c1)C(CCNC(=O)C(C)(C)C)c1cc(OC)ccc1-2 [Example 14, N-[2-(2,7-dimethoxyfluoren-9-yl)ethyl]-2,2-dimethyl propanamide] | – |
| < 100 nM | COc1ccc2c(c1)C(CCCNC(C)=O)c1cc(OC)ccc1-2 [Example 20, N-[3-(2,7-dimethoxyfluoren-9-yl)prop-1-yl]acetamide] | – |
| < 100 nM | C=CC(=O)NCCC1c2ccccc2-c2ccc(OC)cc21 (centres unmarked) [Example 11, N-[2-(2-methoxyfluoren-9-yl)ethyl]-2-propenamide] | – |
| < 100 nM | CCOc1ccc2c(c1)C(CCNC(=O)CC)c1cc(OC)ccc1-2 (centres unmarked) [Example 29, N-[2-(2-ethoxy-7-methoxyfluoren-9-yl)-ethyl]propanamide] | – |
| < 100 nM | COCC(=O)NCCC1c2cc(OC)ccc2-c2ccc(OC)cc21 [Example 9, N-[2-(2,7-dimethoxyfluoren-9-yl)ethyl]methoxyacetamide] | – |
